Test results reported in ChEMBL document CHEMBL1143116, “Synthesis and biological evaluation of 5-(pyridin-2-yl)thiazoles as transforming growth factor-beta type1 receptor kinase inhibitors” (Bioorg Med Chem Lett, 2008).

Target: T1, TGF-beta receptor type-1 (Homo sapiens) (UniProt P36897)
T1 sequence (whole entry): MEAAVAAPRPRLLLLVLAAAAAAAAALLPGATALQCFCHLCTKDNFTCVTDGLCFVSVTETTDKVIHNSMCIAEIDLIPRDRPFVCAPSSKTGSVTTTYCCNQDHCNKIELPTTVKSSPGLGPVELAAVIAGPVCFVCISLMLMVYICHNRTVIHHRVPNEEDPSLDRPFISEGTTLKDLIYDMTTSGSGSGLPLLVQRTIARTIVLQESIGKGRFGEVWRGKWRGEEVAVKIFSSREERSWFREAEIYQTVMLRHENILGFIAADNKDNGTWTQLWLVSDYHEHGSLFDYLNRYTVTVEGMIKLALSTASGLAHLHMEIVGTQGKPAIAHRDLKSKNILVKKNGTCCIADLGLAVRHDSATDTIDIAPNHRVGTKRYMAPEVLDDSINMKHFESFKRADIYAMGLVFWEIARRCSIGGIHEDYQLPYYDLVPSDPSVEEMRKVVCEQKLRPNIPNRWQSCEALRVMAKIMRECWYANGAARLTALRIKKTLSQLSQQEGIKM
Assay: Inhibition of TGF-beta-induced ALK5 in human HaCaT cells assessed as p3TP-luciferase activity
Assay type: cell-based

Activity: Dose-dependent effect
Compound: Cc1cccc(-c2sc(NCc3cccc(C(N)=O)c3)nc2-c2ccc3nccnc3c2)n1
